Reference: patent US10653667B2, “Drug for preventing, treating or preventing metastasis of giant cell tumor that occurs in bone or soft parts, chondrosarcoma, or osteosarcoma, local injection for arterial embolization, and artificial bone” (NIPPON CHEMIPHAR CO., LTD, priority 2013, dated 2020)
“Also recorded” adds a separate entry of the source. Read-outs that look alike come from different tables or passages of the source.

How the values were obtained:
[1] = tested on: GCTB cultured cells (case 1, case 2); test: Cell proliferation of GCTB cultured cells in the presence or absence of PPARγ siRNA; format: cell-based, human; details: 200 μM zaltoprofen or 60 μM troglitazone; 72 hours
[2] = tested on: cultured cells of pigmented villonodular synovitis (PVNS); test: Suppression of cell proliferation of PVNS cultured cells (CCK-8); format: cell-based, human; details: PVNS cells; drug at various concentrations; CCK-8 24 hours after addition
[3] = tested on: H-EMC-SS cells; details: inventors' earlier reports; cited from earlier work
[4] = tested on: GCTB cultured cells (case 1, case 2; GCT-1, GCT-2); details: GCTB derived from a patient; inventors' earlier reports; cited from earlier work
[5] = tested on: synovial cells derived from rheumatism patients; details: cited from earlier work
[6] = tested on: GCTB cultured cells of the case 1; test: Fat cell differentiation of GCTB cultured cells (HCS Lipid TOX Green Neutral Lipid Stain); format: cell-based, human; details: zaltoprofen 10, 50, 100 μM; fat cell differentiation-inducing medium 7 to 14 days
Description: It has been reported that PPARγ is a transcription factor indispensable for fat cell differentiation. Therefore, the GCTB cultured cells of the aforementioned case 1 were cultured on chamber cover slide glass, and when they reached confluent, zaltoprofen was added to the cells at various concentrations (10, 50, and 100 μM). From 24 hours thereafter, the cells were cultured in a fat cell differentiation-inducing medium (STREMPRO Adipogenesis Differentiation Kit, Invitrogen) for 7 to 14 days, and differentiation into fat cells was analyzed with HCS Lipid TOX Green Neutral Lipid Stain (Invitrogen) (FIGS. 8 and 9).

[7] = tested on: PPARγ expression in cells of pigmented villonodular synovitis (PVNS); test: PPARγ immunostaining of PVNS cells; format: cell-based, human; details: zaltoprofen 400 μM or troglitazone 200 μM
[8] = tested on: HOS cells; test: Suppression of proliferation of human bone sarcoma cell line HOS (CCK-8); format: cell-based; details: 72 hours
Description: Cells of the human bone sarcoma cell line, HOS (purchased from American Type Culture Collection), were cultured in the same manner as that of Example 1 until they became sub-confluent. Zaltoprofen was added to the cells at concentrations of 25, 50, 100, 200 and 400 μM, color development was performed with Cell Counting Kit-8 (CCK-8, Dojindo) 72 hours thereafter, and absorbance was measured at 450 nm further 3 hours thereafter (FIG. 72).

[9] = tested on: H-EMC-SS cells; test: Proliferation of H-EMC-SS cells cultured beforehand with PPARγ siRNA or control siRNA; format: cell-based, human; details: 400 μM zaltoprofen
Description: Cells of the human chondrosarcoma cell line, H-EMC-SS, were cultured in the same manner as that of Example 1 until they became sub-confluent, PPARγ siRNA (Dharmacon, catalog number M-003436-02-0005) that selectively suppresses expression of PPARγ, or a control siRNA (Dharmacon, catalog number D-001206-14-05) was added to the cells at a final concentration of 100 nM, and the cells were cultured for 48 hours. Then, 400 μM zaltoprofen was added to the cells, color development was performed with Cell Counting Kit-8 (CCK-8, Dojindo) 24 hours thereafter, absorbance was measured at 450 nm further 3 hours thereafter, and the absorbance observed with the pretreatment with PPARγ siRNA was compared with the absorbance observed with the pretreatment with the control siRNA (FIG. 70).

[10] = tested on: PPARγ expression in giant cell tumor of bone (GCTB); details: patient who had taken zaltoprofen for four weeks at 240 mg per day; inventors' earlier reports; cited from earlier work
[11] = tested on: cultured cells of human pigmented villonodular synovitis (PVNS); test: Tunel assay and caspase 3 staining of PVNS cultured cells; format: cell-based; details: zaltoprofen 400 μM or troglitazone 200 μM, compared with control
Description: (§1) Further, the aforementioned GCTB cultured cells of the case 1 mentioned above were cultured on chamber cover slide glass, and zaltoprofen was added at different concentrations (100, and 200 μM) 24 hours afterward. Then, 8 hours and 24 hours afterward, the cells were fixed with 4% paraformaldehyde, staining with caspase 3 and Tunel assay were performed, and presence or absence of apoptosis was analyzed. In the Tunel assay, fragmented DNAs produced in the process of apoptosis were detected by the TdT-mediated dUTP nick end labeling method (TUNEL). Observation was performed with a fluorescence microscope (BZ-9000) of Keyence, and positive images for each concentration were quantitatively observed (FIGS. 2 to 5).
(§2) Further, in the same manner as that of Example 1, the cultured cells of human giant cell tumor of tendon sheath (GCTT) and the cultured cells of human pigmented villonodular synovitis (PVNS) were subjected to staining with caspase 3 and Tunel assay, and presence or absence of apoptosis was analyzed (FIGS. 18 to 25).

[12] = tested on: GCTB cultured cells (case 1, case 2; GCT-1, GCT-2); test: Suppression of cell proliferation of GCTB cultured cells (Cell Counting Kit-8, WST assay); format: cell-based, human; details: drug at various concentrations, CCK-8 24 hours after addition
Description: Tissue Int., 75:71-77), repeatedly subcultured until there were only spindle-shaped cells, which state was gradually attained from the state that there were also multinucleated giant cells observed in an early stage, and then used for the following analysis. […] Zaltoprofen was added as a solution in DMSO (dimethyl sulfoxide) prepared at a concentration 1000 times higher than the final concentration, and the solution was added in a volume of 0.1% of the volume of the medium. The same shall apply to the other drugs used in the following examples. […]

[13] = tested on: SW1353 cells; test: Cell invasion of SW1353 cells cultured beforehand with or without GW9662; format: cell-based, human
Description: Cells of the human chondrosarcoma cell line, SW1353, were cultured in the same manner as that of Example 1 until they became sub-confluent, then, GW9662, which is an irreversible antagonist of PPARγ, was added to the cells at a final concentration of 1 μM, and the cells were cultured for 60 minutes. Then, zaltoprofen was added to the cells at various concentrations of 200, 300, and 400 μM, cell invasion was measured with Matrigel™ Invasion Chamber (BD Bioscience, catalog number 354480) 24 hours afterward, and the result was compared with the degree of cell invasion observed with addition of only DMSO not dissolving GW9662 (FIG. 78).

[14] = tested on: cultured cells of human giant cell tumor of tendon sheath (GCTT); test: Tunel assay and caspase 3 staining of GCTT cultured cells; format: cell-based; details: zaltoprofen 400 μM or troglitazone 200 μM, compared with control
Description: as §1, §2

[15] = tested on: OUMS-27 cells; test: Suppression of proliferation of human chondrosarcoma cell line OUMS-27 (CCK-8); format: cell-based; details: at concentrations of 200 μM and 400 μM (50-400 μM tested); 72 hours

CC(C(=O)O)c1ccc2c(c1)CC(=O)c1ccccc1S2 (stereo not shown) [zaltoprofen]
cell proliferation-inhibiting effect in the PPARγ siRNA addition group [1]: significantly suppressed
suppression of cell proliferation (absorbance at 450 nm) [2]: cell proliferation was suppressed
suppression of proliferation of H-EMC-SS cells [3]: suppress proliferation
suppression of proliferation of cells of giant cell tumor of bone [4]: suppressed proliferation
activation of PPARγ [5]: activated PPARγ
apoptosis [5]: caused apoptosis
suppression of proliferation of the cells [5]: suppress proliferation
positive images obtained with HCS Lipid TOX Green Neutral Lipid Stain (differentiation into fat cells) [6]: increased in a zaltoprofen concentration-dependent manner
expression of PPARγ (PPARγ-positive images) [7]: expression of PPARγ was successfully observed
suppression of proliferation of HOS cells ([8]; 400 μM zaltoprofen): about 60%
suppression of cell proliferation of HOS cells ([8]; at 100 μM, 200 μM and 400 μM, concentration-dependent (25-400 μM tested)): suppressed
suppression of proliferation of H-EMC-SS cells ([9]; 24 hours): suppressed proliferation
cell proliferation-suppressing action with PPARγ siRNA ([9]; H-EMC-SS, PPARγ siRNA 100 nM 48 hours): completely eliminated
cells observed instead of the tumor [10]: fat cell-like cells showing enhanced expression of PPARγ were observed
Tunel-positive ratio [11]: increased
caspase 3-positive ratio [11]: increased
suppression of cell proliferation (live cell count, absorbance at 450 nm) [12]: concentration-dependent suppression of the cell proliferation; also recorded: suppressed proliferation
suppression of cell invasion of SW1353 cells ([13]; 400 μM zaltoprofen, 24 hours, without GW9662): higher than 80%
suppression of the cell invasion after preincubation with GW9662 ([13]; 400 zaltoprofen, GW9662 1 μM): substantially eliminated by GW9662
Tunel-positive ratio [14]: increased
caspase 3-positive ratio [14]: increased
suppression of proliferation of OUMS-27 cells [15]: suppressed proliferation
